Measurements: PubChem BioAssay (NCI)
Where “and” joins values, the source holds several entries; their conditions need not be identical. Equal values may be shown once.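 Step 1: Grow cells in 96-well plates. Step 2: Expose to compound for 48 hours at 5 concentrations. Step 3: Interpolate endpoints linearly; if unreached, use highest concentration. GI50 = concentration required for 50% inhibition of growth. TGI is the concentration that stops growth completely.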

Tests used:
Test in all cases: NCI anticancer screen, dose series, 48 h
[1] = system: MCF7 breast
[2] = system: OVCAR-4 ovarian
[3] = system: SK-MEL-2 melanoma
[4] = system: HOP-62 NSCLC
[5] = system: HT29 colon
[6] = system: UACC-257 melanoma
[7] = system: EKVX NSCLC
[8] = system: HS 578T breast
[9] = system: A498 renal
[10] = system: RXF 393 renal

| Structure (SMILES) | TGI [1] | TGI [2] [µM] | TGI [3] | TGI [4] | TGI [5] | TGI [6] | TGI [7] | TGI [8] [µM] | TGI [9] [µM] | TGI [10] | GI50 [1] [µM] | GI50 [3] [µM] | GI50 [4] [µM] | GI50 [5] [µM] | GI50 [6] [µM] | GI50 [7] [µM] | GI50 [10] [µM] |
| --- | --- | --- | --- | --- | --- | --- | --- | --- | --- | --- | --- | --- | --- | --- | --- | --- | --- |
| [O-]/[N+](=C\c1ccccc1OC(=S)S)c1ccc(Cl)cc1 | 64.8 µM | 37 | > 100 µM | > 100 µM | > 100 µM | > 100 µM | > 100 µM | > 100 | > 100 | > 100 µM | – | – | – | – | – | – | – |
| O=c1cc(-c2cc(O)c(O)c(-c3c(O)cc4oc(-c5ccc(O)c(O)c5)cc(=O)c4c3O)c2)oc2cc(O)cc(O)c12 | > 25 µM | > 25 | > 25 µM | > 25 µM | > 25 µM | > 25 µM | > 25 µM | > 25 | > 25 | > 25 µM | – | – | – | – | – | – | – |
| COc1ccc(COCC[C@H](C)OC2OC(CO[Si](C)(C)C(C)(C)C)C(OC(=O)CCCN=[N+]=[N-])C(OC(=O)CCCN=[N+]=[N-])C2OC(=O)CCCN=[N+]=[N-])cc1 (stereo partly specified) | > 100 µM | > 100 | > 100 µM | > 100 µM | 62.7 µM | > 100 µM | > 100 µM | > 100 | > 100 | > 100 µM | – | – | – | – | – | – | – |
| C=Cc1ccccc1C1(O)C=CC(OC)(OC)C=C1 | 13.3 µM | 37.2 | 37.9 µM | 19.5 µM | 11.7 µM | 24.1 µM | 50.5 µM | > 100 | 41 | 14.8 µM | – | – | – | – | – | – | – |
| C\C(=N/N=C1/C(=C\N(C)C)C(=O)NC(=O)N1C)c1ccc(Cl)cc1 | > 100 µM | > 100 | > 100 µM | > 100 µM | > 100 µM | > 100 µM | > 100 µM | > 100 | > 100 | > 100 µM | – | – | – | – | – | – | – |
| CCON1CC(C(=O)OC)=C(O)C1=O | > 100 µM | > 100 | > 100 µM | > 100 µM | > 100 µM | > 100 µM | > 100 µM | > 100 | > 100 | > 100 µM | – | – | – | – | – | – | – |
| CO[C@@H]1O[C@H](C(=O)c2ccccc2)[C@H]2OC(C)(C)O[C@@H]12 | > 100 µM | > 100 | > 100 µM | > 100 µM | – | > 100 µM | > 100 µM | > 100 | > 100 | > 100 µM | – | – | – | – | – | – | – |
| CCOC(=O)c1cn2c(n1)sc1cc(Cl)cc(Cl)c12 | > 100 µM | > 100 | > 100 µM | > 100 µM | > 100 µM | > 100 µM | > 100 µM | > 100 | > 100 | > 100 µM | – | – | – | – | – | – | – |
| Cc1cnc2c(c1)C(=O)C1=C(C2=O)C2OC(=O)CC2OC1(C)C (stereo unspecified) | 0.363 µM | 0.359 | 2.76 µM | 2.58 µM | 1.25 µM | 0.469 µM | 0.826 µM | 0.693 | 3.75 | 0.507 µM | – | – | – | – | – | – | – |
| COc1cc2c(cc1Cc1c(F)cccc1Cl)nc(-c1c(F)cccc1Cl)n2Cc1c(F)cccc1Cl | > 100 µM | > 100 | 47.5 µM | 75.7 µM | > 100 µM | > 100 µM | 69.7 µM | > 100 | 84 | > 100 µM | – | – | – | – | – | – | – |
| C1=C\SS/C=C\SS/1 | 36.2 µM | > 100 | > 100 µM | > 100 µM | 35.6 µM | > 100 µM | > 100 µM | > 100 | > 100 | 88.1 µM | – | – | – | – | – | – | – |
| Nc1nn2c(=O)c3ccccc3nc2s1 | > 100 µM | > 100 | > 100 µM | > 100 µM | > 100 µM | > 100 µM | > 100 µM | > 100 | > 100 | > 100 µM | – | – | – | – | – | – | – |
| O=C(c1ccncc1)C1C(=O)c2ccccc2C1C1(O)c2ccccc2CC1C(O)c1ccncc1 (stereo unspecified) | > 100 µM | > 100 | 57.3 µM | > 100 µM | > 100 µM | > 100 µM | > 100 µM | > 100 | > 100 | > 100 µM | – | – | – | – | – | – | – |
| COC1=C(C)C(=O)c2c(c(COC(N)=O)c3n2CC(OC(C)=O)C3OC(C)=O)C1=O (stereo unspecified) | 1.23 µM | 1.03 | 0.387 µM | 0.563 µM | 0.25 µM | 0.375 µM | 0.678 µM | 1.09 | 1.34 | 0.428 µM | – | – | – | – | – | – | – |
| Cc1c2c(OCC3CCCCO3)nn(C)c(=O)c2c(C)n1-c1ccccc1 (stereo unspecified) | 30.3 µM | 32.8 | 39.4 µM | 38 µM | 91.4 µM | 34.9 µM | 33.2 µM | 46.6 | 28.3 | 34.3 µM | – | – | – | – | – | – | – |
| COC(=O)/C(C#N)=C(/NCCN)Nc1ccccc1 | > 100 µM | > 100 | > 100 µM | > 100 µM | > 100 µM | > 100 µM | > 100 µM | > 100 | > 100 | > 100 µM | – | – | – | – | – | – | – |
| O=C1NCN(c2ccccc2)C12CCN(CCCN1CCN(CCOC(c3ccc(F)cc3)c3ccc(F)cc3)CC1)CC2 | 3.99 µM | 9.58 | 3.71 µM | 3.81 µM | 3.97 µM | 3.44 µM | 9.81 µM | 4.67 | 3.35 | 2.25 µM | – | – | – | – | – | – | – |
| C=C(CN(C)C)C(=O)c1ccccc1[N+](=O)[O-] | 31.1 µM and 24.5 µM | 41.1 | 33.2 µM and 35 µM | > 100 µM and 36.6 µM | 39.1 µM and 16.1 µM | 29.7 µM and 32.8 µM | > 59.3 µM and 49 µM | 77.1 | > 92 | 30.2 µM and 4.32 µM | 5.02 | 17.4 | 17.7 | 3.31 | 14.9 | 23 | 1.99 |
